Test results from US20080311169A1, “Composition Comprising Ginsenosides for Treating or Preventing Angiostenosis and Restenosis” (priority 2004, published 2008).
Like-named read-outs stand apart in the source and are kept apart here.

Assays:
[1] = tested on: SMCs (human aortic smooth muscle cells); experiment: Cell cytotoxicity, colorimetric MTT assay
Method: SMCs (human aortic smooth muscle cells, Cambrex, USA) were cultured in SmGM-2 BulletKit (Cambex, USA) medium containing 10% FBS (Cambrex, USA), with 100× antibiotics (Cambex, USA) added thereto, and subcultured by using 1×trypsin-EDTA (Gibco BRL, USA) with maintaining the condition of 37° C., 5% CO2.
Before confirming whether ginsenoside and red ginseng extract affect the growth of muscle cell, the cell cytotoxicity was determined as the effect of cell cytotoxicity induced by ginsenosides Rk1, Rg3, and Rg5, red ginseng extract, and the present composition in muscle cell.
The cell cytotoxicity to the sample was determined by colorimetric MTT assay (Scudiero D. A. et al., Cancer Res., 48:4827-4833, 1988). That is, the muscle cell was plated to 96 wells microtiter tissue culture plate (Falcon) by 1×10^4 cells/ml, and then each well was treated with the sample, cultured for a certain period of time, treated with MTT sample, and melted with solubilization solution when formazan was formed, and the absorbance was determined at 540 nm.

[2] = tested on: SMCs (human aortic smooth muscle cells); experiment: Cell proliferation ELISA BrdU assay; type: cell-based; settings: for inhibition at 5 µg/mL: Homo sapiens, at the concentration of 5 μg/ml, FIGS. 3 and 4, read-out: inhibition of the growth of muscle cell; for inhibition of the growth of muscle cell (in words): absorbance 450 nm, FIGS. 3 and 4
Method: To determine the effects of cell proliferation by the sample, Cell proliferation ELISA BrdU assay kit (Roche, USA) was purchased and used. Cells were put into 96 wells plate, treated with the sample after cultivation, and cultured for a certain period of time. At a certain point of time, BrdU labeling solution was added into the cells, which in turn were reacted at 37° C., in 5% CO2 for 2 hr. Then, FixDenat was added thereto, and the mixture was reacted at the room temperature for 30 min. And, Anti-BrdU-POD working solution was added thereto, and the mixture was reacted at the room temperature for 1 hr and 30 min. Afterwards, substrate solution was added thereto, and the mixture was reacted at the room temperature for 20 min. The reaction was stopped by using sulphuric acid, and then the absorbance was determined at 450 nm.

[3] = MTT, absorbance 540 nm, proper concentration, FIGS. 1 and 2

Row | SMILES | cell cytotoxicity in muscle cell [1] | inhibition at 5 µg/mL [2] [%] | inhibition of the growth of muscle cell (in words) [2] | cell cytotoxicity in muscle cell [1, 3]
1 | CC(C)=CCC[C@](C)(O)[C@H]1CC[C@]2(C)[C@@H]1[C@H](O)C[C@@H]1[C@@]3(C)CC[C@H](O[C@@H]4O[C@H](CO)[C@@H](O)[C@H](O)[C@H]4O[C@@H]4O[C@H](CO)[C@@H](O)[C@H](O)[C@H]4O)C(C)(C)[C@@H]3CC[C@]12C [Rg3, ginsenoside Rg3] | no cell cytotoxicity was found | 50 | inhibited the growth of muscle cell | –
2 | CC(C)=CC/C=C(/C)C1CCC2(C)C1C(O)CC1C3(C)CCC(OC4OC(CO)C(O)C(O)C4OC4OC(CO)C(O)C(O)C4O)C(C)(C)C3CCC12C (centres unmarked) [Rg5, ginsenoside Rg5] | – | 50 | inhibited the growth of muscle cell | no cell cytotoxicity was found
3 | C=C(CCC=C(C)C)C1CCC2(C)C1C(O)CC1C3(C)CCC(OC4OC(CO)C(O)C(O)C4OC4OC(CO)C(O)C(O)C4O)C(C)(C)C3CCC12C (centres unmarked) [Rk1, ginsenoside Rk1] | – | – | inhibited the growth of muscle cell | no cell cytotoxicity was found
